From paper PMC8132073 (Journal of Applied Glycoscience, 2020)

Columns and labels:
BsRhaA = target: T1, BsRhaA (Bacillus sp. GL1, UniProt Q93RE8); experiment: p-nitrophenol release, absorbance […] nm; assay type: biochemical; details: […] sodium phosphate pH […] °C
T1 sequence (Q93RE8 1-886): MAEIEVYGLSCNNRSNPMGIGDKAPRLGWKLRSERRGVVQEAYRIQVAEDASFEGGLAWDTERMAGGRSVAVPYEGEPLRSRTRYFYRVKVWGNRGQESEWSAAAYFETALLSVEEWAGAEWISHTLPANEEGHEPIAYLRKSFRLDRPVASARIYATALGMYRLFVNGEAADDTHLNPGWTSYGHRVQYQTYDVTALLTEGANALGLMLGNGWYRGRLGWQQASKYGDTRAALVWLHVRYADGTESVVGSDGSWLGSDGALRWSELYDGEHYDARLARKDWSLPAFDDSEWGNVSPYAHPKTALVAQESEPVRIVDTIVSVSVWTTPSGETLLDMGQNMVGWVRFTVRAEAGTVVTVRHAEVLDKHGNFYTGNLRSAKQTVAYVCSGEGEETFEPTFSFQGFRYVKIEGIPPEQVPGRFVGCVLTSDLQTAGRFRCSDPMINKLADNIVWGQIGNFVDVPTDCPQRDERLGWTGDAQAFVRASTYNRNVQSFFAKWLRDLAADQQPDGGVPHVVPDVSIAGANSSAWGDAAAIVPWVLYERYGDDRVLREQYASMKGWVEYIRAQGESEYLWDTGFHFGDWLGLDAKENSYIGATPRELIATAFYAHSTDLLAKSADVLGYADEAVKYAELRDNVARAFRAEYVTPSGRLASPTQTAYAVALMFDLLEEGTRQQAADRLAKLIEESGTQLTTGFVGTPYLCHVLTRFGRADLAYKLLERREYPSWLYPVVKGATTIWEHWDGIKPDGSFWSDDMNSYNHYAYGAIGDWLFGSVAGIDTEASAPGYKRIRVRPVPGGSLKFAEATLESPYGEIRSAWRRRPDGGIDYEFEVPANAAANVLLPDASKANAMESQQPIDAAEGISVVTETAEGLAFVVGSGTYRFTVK

KoRha = target: T2, KoRha (Klebsiella oxytoca, UniProt A0A0J9X262); experiment: p-nitrophenol release, absorbance […] nm; assay type: biochemical; details: 100 mM sodium phosphate pH 7.0, 30 °C
T2 sequence (A0A0J9X262 1-523): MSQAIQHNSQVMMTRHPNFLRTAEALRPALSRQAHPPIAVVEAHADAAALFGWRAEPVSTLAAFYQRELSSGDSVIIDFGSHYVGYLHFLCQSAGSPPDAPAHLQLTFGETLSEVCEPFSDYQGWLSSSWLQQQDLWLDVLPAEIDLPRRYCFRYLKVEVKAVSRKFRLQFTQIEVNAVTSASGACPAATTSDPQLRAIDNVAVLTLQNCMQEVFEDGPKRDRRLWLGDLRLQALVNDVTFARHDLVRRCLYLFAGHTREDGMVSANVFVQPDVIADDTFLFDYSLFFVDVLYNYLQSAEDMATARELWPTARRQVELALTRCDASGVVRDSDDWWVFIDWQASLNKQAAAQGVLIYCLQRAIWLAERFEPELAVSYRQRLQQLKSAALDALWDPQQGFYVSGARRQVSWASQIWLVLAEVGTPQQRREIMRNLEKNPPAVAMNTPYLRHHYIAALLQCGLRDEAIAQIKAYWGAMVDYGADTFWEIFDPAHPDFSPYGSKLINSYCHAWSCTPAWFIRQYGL

SMILES: C[C@@H]1O[C@@H](Oc2ccc([N+](=O)[O-])cc2)[C@H](O)[C@H](O)[C@H]1O [pNP-α-L-Rha, 4-nitrophenyl-α-L-rhamnopyranoside]
- p-nitrophenol release, absorbance 405 nm (BsRhaA): All four α-L-Rha-ases exhibited α-L-rhamnosyl-hydrolyzing and weak α-L-mannosyl-hydrolyzing activity
- p-nitrophenol release, absorbance 405 nm (KoRha): All four α-L-Rha-ases exhibited α-L-rhamnosyl-hydrolyzing and weak α-L-mannosyl-hydrolyzing activity
